Reference: paper PMC12424289, “Programmable Nanostructure Assembly of a Paclitaxel Derivative Enables Tunable Anticancer Therapy via Hydrogen Bond Engineering” (ACS Nano, 2025)

How the values were obtained:
[1] = Solid-state storage stability of PTP; assay type: physicochemical; details: stored at −20 °C for 6 months; initial purity 98.5%
Protocol: For solid-state stability, 5.0 mg PTP was sealed in glass bottles and stored under controlled conditions in stability chambers (MMM Climacell-E, Germany). The samples were stored at 40 ± 2 °C and 75 ± 5% relative humidity, and 25 ± 2 °C and 60 ± 5% RH. Additional samples were stored at 4 °C and −20 °C in a refrigerator (BCD-610W, Siemens, Germany). At scheduled intervals, triplicate samples from each condition were analyzed for purity by HPLC.

[2] = Surface tension measurement / critical aggregation concentration; assay type: physicochemical
Protocol: Surface tension measurements were conducted at 25 °C using a drop shape analyzer (DSA30S; Kruss, Germany). Starting with a 5.0 mg·mL^–1 PTP dispersion, serial dilutions were prepared to obtain a range of lower concentrations. Following overnight assembly, the PTP dispersion was drawn into a syringe (HENKE-JECT, Germany), and a droplet was suspended from the needle tip. The outer diameter of the needle (1.825 mm) served as the reference for image analysis. Images of the droplet were captured, and the surface tension was calculated using the Young–Laplace equation based on the droplet’s shape.

[3] = In vitro PTP release (transwell, PBS); assay type: physicochemical; details: over 12 h, 5.0 mg·mL^–1 PTP
Protocol: The in vitro drug release from the PTP assemblies and PTP@HA was assessed in 1 × PBS (pH 7.4). A 0.1 mL dispersion of PTP (5.0 mg·mL^–1) or PTP@HA (equivalent to 5.0 mg·mL^–1 PTP and 20.0 mg·mL^–1 HA) in saline was added to the upper chamber of a 24-well transwell plate (#3413, Corning, USA) equipped with a 0.4 μm polycarbonate membrane (n = 3). The lower chamber contained 0.6 mL 1 × PBS. The setup was maintained at 37 °C with shaking at 100 rpm. At specified time intervals, the PBS in the lower chamber was replaced with fresh PBS. Each collected sample was mixed with 600 μL acetonitrile and vortexed for 1 min. PTP release and PTX degradation products were quantified by HPLC.

[4] = Degradation of PTP assemblies in aqueous solution (HPLC); assay type: physicochemical; details: 37 °C
Protocol: PTP, PTP@PEG, and PTP@HA (200 μL, 0.1 mg·mL^–1) solutions were sealed in ampules and incubated at 37 °C with agitation at 100 rpm. Samples were collected in triplicate at scheduled intervals, treated with acetonitrile, vortexed for 1 min, and analyzed using HPLC. Degradation rate constants (k) were calculated by plotting the natural logarithm of the concentration ratio (ln c/c0) versus time, with the slopes of the linear regression plots representing the rate constants.

[5] = test system: human ovarian SKOV3 cells; assay: CCK8 antiproliferation assay, SKOV3; assay type: cell-based; details: SK-OV-3, SKOV3, 48 h treatment
Protocol: The mouse breast cancer cell line 4T1 and the human ovarian cancer cell line SKOV3 were cultured in RPMI 1640 medium supplemented with 10% fetal bovine serum, 100 units·mL^–1 penicillin, and 100 μg·mL^–1 streptomycin. The human lung cancer cell line A549 and the luciferase-expressing human colorectal carcinoma cell line HCT116-Luc were cultured in high-glucose DMEM medium supplemented with 10% fetal bovine serum, 100 units·mL^–1 penicillin, and 100 μg·mL^–1 streptomycin. All cell lines were maintained at 37 °C in a Steri-Cycle 371 incubator (Thermo Scientific, USA) with a humidified atmosphere of 5% CO2. Only cells between passages 5 and 15 were used for cell-based experiments.
The antiproliferative activity of PTP was evaluated using the Cell Counting Kit-8 (CCK8) assay. PTX solution served as a positive control. Cell suspensions were prepared at a density of 3 × 10^4 cells·mL^–1 and seeded in 96-well plates at a volume of 100 μL per well. The plates were incubated for 24 h to allow cell attachment and growth. Subsequently, the culture media were replaced with fresh media containing varying concentrations of PTX or PTP solutions (100 μL per well), and the cells were incubated for an additional 48 h (n = 3). Control wells received fresh culture media alone (n = 3). […] Finally, the absorbance was measured at 450 nm using a microplate reader (Synergy H1, BioTek, USA). […]

Stability in rat plasma = assay type: in vitro ADME
Protocol: For plasma stability studies, a PTP or PTP@PEG dispersion (1.2 mg·mL^–1, PTP-equivalent) was diluted with plasma to a final concentration of 100.0 μg·mL^–1. Plasma was obtained from male rat blood by centrifugation (1600 × g, 15 min). Aliquots (100 μL each) were incubated at 37 °C with agitation at 100 rpm, and samples were collected at designated time points in triplicate. Proteins were precipitated by adding 200 μL acetonitrile, followed by vortex mixing and centrifugation at 17 000 rpm and 4 °C for 30 min. The resulting supernatants were analyzed by HPLC.

subcutaneous 4T1 tumors = assay: Antitumor efficacy and safety in subcutaneous 4T1 tumor model; assay type: in vivo; details: 4T1 model, iv 10.0 mg·kg^–1 PTX equivalent, five doses
Protocol: For pharmacodynamic evaluation, female Balb/c mice (18–22 g, n = 6 per group) bearing subcutaneous 4T1 tumors (approximately 50 mm^3) received intravenous injections every other day for five doses at 10.0 mg·kg^–1 (PTX equivalent). Tumor volume and body weight were monitored daily until day 14, when tumors were excised and photographed. At study termination (day 14), major organs (heart, liver, spleen, lungs, and kidneys) were collected from these mice. The organs were fixed in 4% paraformaldehyde, dehydrated with ethanol, and cleared with xylene. Afterward, the tissues were embedded in paraffin wax and sectioned after dipping wax operation at 60 °C. The sections were then stained with hematoxylin and eosin for histological examination.

With CC(=O)O[C@H]1C(=O)[C@@]2(C)[C@H]([C@H](OC(=O)c3ccccc3)[C@]3(O)C[C@H](OC(=O)[C@H](OC(=O)CCP(=O)(O)O)[C@@H](NC(=O)c4ccccc4)c4ccccc4)C(C)=C1C3(C)C)[C@]1(OC(C)=O)CO[C@@H]1C[C@@H]2O [PTP, PTX-2’–OOC-P] the purity after storage [1] was 98.1%, the “water–air surface tension (plateau)” value ([2]; above 1.0 mg·mL^–1) was “approximately 55.0 mN·m^–1” and the critical aggregation concentration ([2]; water, 25 °C, inflection of surface tension versus log concentration) was 0.6 mg·mL^–1. The “total release of PTP” value ([3]; PBS pH 7.4, 37 °C) was 40.6%, the average release rate ([3]; PBS pH 7.4, 37 °C (data not shown)) was 17.5 μg·h^–1 and the “degradation rate constant (k)” value ([4]; 0.1 mg·mL^–1 in 5% glucose (5% G)) was 2.3 × 10^–2 day^–1. The “degradation rate constant (k)” value ([4]; 0.1 mg·mL^–1 in phosphate buffer saline (PBS)) was 1.3 day^–1, the “degradation rate constant (k)” value ([4]; 0.1 mg·mL^–1 in saline) was 3.2 × 10^–2 day^–1 and the “degradation rate constant (k)” value ([4]; 0.1 mg·mL^–1 in water) was 8.0 × 10^–2 day^–1. For the same compound, the IC50 [5] was 31.2 nM, the “degradation faster than PTP@PEG” value (Stability in rat plasma; rat plasma, 37 °C) was 1.2 fold and the “degradation rate constant (k) in plasma” value (Stability in rat plasma; rat plasma, 37 °C, 100 μg·mL^–1 PTP-equivalent) was 0.23 h^–1. The parent compound left (Stability in rat plasma; rat plasma, 37 °C, after 10 h) was 10.4%, the degraded in plasma (Stability in rat plasma; within 10 h, 100.0 μg·mL^–1) was “approximately 90%” and the “safety: body weight and renal histology” value (subcutaneous 4T1 tumors) was “renal inflammation”.
